Experiments:
Type in all cases: in vivo
[1] = tested on: Monocotyledonous and dicotyledonous test plants; test: Herbicidal action prior to emergence of the plants (pre-emergence action), Example B1; settings: preemergence application, 250 g/ha, evaluated after 4 weeks, 100%=total damage, 0%=no damage
In short: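 Monocot and dicot species were sown in standard soil and sprayed pre-emergence, right after sowing, at 250 g/ha as an aqueous suspension or emulsion. Plants were grown in a greenhouse for 4 weeks. Damage was scored from 0% (none) to 100% (total).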

Stellaria media = test: Microscreen (pre-emergence), Example B3; settings: preemergent application, 250 g/ha, evaluated 8 days later, 100%=total damage
Agrostis tenuis = test: Microscreen (pre-emergence), Example B3; settings: preemergent application, 250 g/ha, evaluated 8 days later, 100%=total damage
Amaranthus retroflexus = test: Microscreen (pre-emergence), Example B3; settings: preemergent application, 250 g/ha, evaluated 8 days later, 100%=total damage
Nasturtium officinale = test: Microscreen (pre-emergence), Example B3; settings: preemergent application, 250 g/ha, evaluated 8 days later, 100%=total damage
Digitaria sanguinalis = test: Microscreen (pre-emergence), Example B3; settings: preemergent application, 250 g/ha, evaluated 8 days later, 100%=total damage
Solanum nigrum = test: Microscreen (pre-emergence), Example B3; settings: preemergent application, 250 g/ha, evaluated 8 days later, 100%=total damage
[2] = tested on: Monocotyledonous and dicotyledonous test plants; test: Herbicidal action after emergence of the plants (post-emergence herbicidal action), Example B2; settings: postemergent application, 125 g/ha, 2- to 3-leaf stage, evaluated after 2-3 weeks, 100%=total damage
In short: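 Sprayed at 2- to 3-leaf stage as aqueous suspension (wettable powder) or emulsion (emulsifiable concentrate) at 125 g/ha; plants grown on in greenhouse. Damage scored after 2–3 weeks (100% = total damage, 0% = none).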

Setaria italica = test: Microscreen (pre-emergence), Example B3; settings: preemergent application, 250 g/ha, evaluated 8 days later, 100%=total damage

## CCCC1CCC(=O)C(C(=O)c2ccc(C(F)(F)F)n3c(C)nnc23)=C1O (centres unmarked) [41.6]
[1]
  herbicidal damage, ABUTH: 70%
  herbicidal damage, AMARE: 100%
  herbicidal damage, BRAPL: 60%
  herbicidal damage, DIGSA: 90%
  herbicidal damage, ECHCG: 70%
  herbicidal damage, SETFA: 70%
  herbicidal damage, STEME: 50%
  herbicidal damage, VERPE: 50%
Stellaria media
  herbicidal damage, Stellaria: 80%
Agrostis tenuis
  herbicidal damage, Agrostis: 100%
Amaranthus retroflexus
  herbicidal damage, Amaranthus: 100%
Nasturtium officinale
  herbicidal damage, Nasturtium: 100%
Digitaria sanguinalis
  herbicidal damage, Digitaria: 90%
Solanum nigrum
  herbicidal damage, Solanum: 90%
[2]
  herbicidal damage, ABUTH: 80%
  herbicidal damage, AMARE: 80%
  herbicidal damage, CHEAL: 80%
  herbicidal damage, DIGSA: 80%
  herbicidal damage, SETFA: 70%
  herbicidal damage, SINAR: 80%
  herbicidal damage, VERPE: 80%
  herbicidal damage, XANST: 80%
Setaria italica
  herbicidal damage, Setaria: 0%

## Cc1nnc2c(C(=O)C3C(=O)C4CCC(C4)C3=O)ccc(C(F)(F)F)n12 (centres unmarked) [Compound 1.4, 3-(3-Methyl-5-trifluoromethyl-[1,2,4]triazolo[4,3-a]pyridine-8-carbonyl)-bicyclo[3.2.1]octane-2,4-dione]
[1]
  herbicidal damage, ABUTH: 100%
  herbicidal damage, AMARE: 100%
  herbicidal damage, BRAPL: 70%
  herbicidal damage, DIGSA: 100%
  herbicidal damage, ECHCG: 90%
  herbicidal damage, SETFA: 90%
  herbicidal damage, STEME: 100%
  herbicidal damage, VERPE: 100%
Stellaria media
  herbicidal damage, Stellaria: 80%
Agrostis tenuis
  herbicidal damage, Agrostis: 50%
Amaranthus retroflexus
  herbicidal damage, Amaranthus: 90%
Nasturtium officinale
  herbicidal damage, Nasturtium: 90%
Digitaria sanguinalis
  herbicidal damage, Digitaria: 90%
Solanum nigrum
  herbicidal damage, Solanum: 90%
[2]
  herbicidal damage, ABUTH: 70%
  herbicidal damage, AMARE: 70%
  herbicidal damage, CHEAL: 90%
  herbicidal damage, DIGSA: 80%
  herbicidal damage, SETFA: 90%
  herbicidal damage, SINAR: 80%
  herbicidal damage, VERPE: 80%
  herbicidal damage, XANST: 70%
Setaria italica
  herbicidal damage, Setaria: 70%

## CCc1nnc2c(C(=O)C3=C(O)C4CCC(C4)C3=O)ccc(C(F)(F)F)n12 (centres unmarked) [Compound 1.5]
[1]
  herbicidal damage, ABUTH: 100%
  herbicidal damage, AMARE: 100%
  herbicidal damage, BRAPL: 60%
  herbicidal damage, DIGSA: 100%
  herbicidal damage, ECHCG: 60%
  herbicidal damage, SETFA: 80%
  herbicidal damage, STEME: 100%
  herbicidal damage, VERPE: 70%
Stellaria media
  herbicidal damage, Stellaria: 60%
Agrostis tenuis
  herbicidal damage, Agrostis: 100%
Amaranthus retroflexus
  herbicidal damage, Amaranthus: 30%
Nasturtium officinale
  herbicidal damage, Nasturtium: 80%
Digitaria sanguinalis
  herbicidal damage, Digitaria: 80%
Solanum nigrum
  herbicidal damage, Solanum: 100%
[2]
  herbicidal damage, ABUTH: 90%
  herbicidal damage, AMARE: 70%
  herbicidal damage, CHEAL: 80%
  herbicidal damage, DIGSA: 70%
  herbicidal damage, SETFA: 60%
  herbicidal damage, SINAR: 80%
  herbicidal damage, VERPE: 70%
  herbicidal damage, XANST: 80%
Setaria italica
  herbicidal damage, Setaria: 50%

## O=C(C1=C(O)C2CCC(C2)C1=O)c1ccc(C(F)(F)F)n2c(C3CC3)nnc12 (centres unmarked) [Compound 1.8]
[1]
  herbicidal damage, ABUTH: 100%
  herbicidal damage, AMARE: 100%
  herbicidal damage, BRAPL: 100%
  herbicidal damage, DIGSA: 100%
  herbicidal damage, ECHCG: 40%
  herbicidal damage, SETFA: 60%
  herbicidal damage, VERPE: 70%
Stellaria media
  herbicidal damage, Stellaria: 80%
Agrostis tenuis
  herbicidal damage, Agrostis: 100%
Amaranthus retroflexus
  herbicidal damage, Amaranthus: 0%
Nasturtium officinale
  herbicidal damage, Nasturtium: 100%
Digitaria sanguinalis
  herbicidal damage, Digitaria: 100%
Solanum nigrum
  herbicidal damage, Solanum: 90%
[2]
  herbicidal damage, ABUTH: 90%
  herbicidal damage, AMARE: 90%
  herbicidal damage, CHEAL: 90%
  herbicidal damage, DIGSA: 80%
  herbicidal damage, SETFA: 80%
  herbicidal damage, SINAR: 90%
  herbicidal damage, VERPE: 100%
  herbicidal damage, XANST: 90%
Setaria italica
  herbicidal damage, Setaria: 100%

## Cc1nnc2c(C(=O)C3=C(O)CCCC3=O)ccc(C(F)(F)F)n12 [Compound 3.4]
[1]
  herbicidal damage, ABUTH: 80%
  herbicidal damage, AMARE: 60%
  herbicidal damage, BRAPL: 80%
  herbicidal damage, DIGSA: 70%
  herbicidal damage, ECHCG: 70%
  herbicidal damage, SETFA: 30%
  herbicidal damage, STEME: 30%
  herbicidal damage, VERPE: 50%
Stellaria media
  herbicidal damage, Stellaria: 70%
Agrostis tenuis
  herbicidal damage, Agrostis: 100%
Amaranthus retroflexus
  herbicidal damage, Amaranthus: 80%
Nasturtium officinale
  herbicidal damage, Nasturtium: 80%
Digitaria sanguinalis
  herbicidal damage, Digitaria: 100%
Solanum nigrum
  herbicidal damage, Solanum: 0%
[2]
  herbicidal damage, ABUTH: 90%
  herbicidal damage, AMARE: 80%
  herbicidal damage, CHEAL: 60%
  herbicidal damage, DIGSA: 80%
  herbicidal damage, SETFA: 80%
  herbicidal damage, SINAR: 90%
  herbicidal damage, VERPE: 100%
  herbicidal damage, XANST: 80%
Setaria italica
  herbicidal damage, Setaria: 60%

## Cc1nnc2c(C(=O)C3=C(O)C(C)(C)C(=O)C(C)(C)C3=O)ccc(C(F)(F)F)n12 [Compound 5.3]
[1]
  herbicidal damage, ABUTH: 100%
  herbicidal damage, AMARE: 100%
  herbicidal damage, BRAPL: 70%
  herbicidal damage, DIGSA: 100%
  herbicidal damage, ECHCG: 100%
  herbicidal damage, SETFA: 60%
  herbicidal damage, STEME: 100%
  herbicidal damage, VERPE: 100%
Stellaria media
  herbicidal damage, Stellaria: 90%
Agrostis tenuis
  herbicidal damage, Agrostis: 50%
Amaranthus retroflexus
  herbicidal damage, Amaranthus: 100%
Nasturtium officinale
  herbicidal damage, Nasturtium: 100%
Digitaria sanguinalis
  herbicidal damage, Digitaria: 100%
Solanum nigrum
  herbicidal damage, Solanum: 100%
[2]
  herbicidal damage, ABUTH: 80%
  herbicidal damage, AMARE: 70%
  herbicidal damage, CHEAL: 80%
  herbicidal damage, DIGSA: 50%
  herbicidal damage, SETFA: 50%
  herbicidal damage, SINAR: 80%
  herbicidal damage, VERPE: 90%
  herbicidal damage, XANST: 90%
Setaria italica
  herbicidal damage, Setaria: 50%
